Legend:
[1] = test system: balloon-injured rat carotid artery; assay: Neointima formation after balloon injury of rat carotid artery (histomorphometry, I/M ratio); type: in vivo, Sprague-Dawley rats
Excerpt: Seventy-nine Sprague-Dawley male rats (Charles River Laboratories) weighing 350 to 450 grams, at 12-16 weeks of age, were included in the study. All rats in this study were handled according to the animal welfare regulation of the Maine Medical Center Research Institute, and the study protocol has been approved by the Animal Care and Use Committee of that institution. The rats received humane care in accordance with the animal use principles of the American Society of Physiology. All rats were maintained under identical conditions of temperature (21±1° C.), humidity (60±5%), and light/dark cycle, and had free access to normal rat chow.
To assess the effect of time course of copper chelation in relation to the injury on the neointima formation, 5 additional groups of rats were studied. All of them were treated with TTM for 2 weeks before the injury, and then TTM was withheld as follows: at the day of the injury (n=6) as well as 4 days (n-5), 6 days (n=7), 8 days (n=6), and 10 days (n=6) after the balloon denudation.
Rats were anesthetized with an intraperitoneal injection of ketamine (50 mg/kg) and xylazine (2.2 mg/kg). Angioplasty of the carotid artery was performed with a balloon embolectomy catheter as previously described. Briefly, the balloon catheter (2F Fogarty, Edwards Laboratories) was introduced through the left external carotid artery into the aorta, and the balloon was inflated. The vessel was damaged by passing an inflated balloon through the lumen three times. The catheter was rotated when pulling back. At the time of the final experiment, the animals were euthanized after anesthesia. A midline abdominal incision exposing the distal abdominal aorta was made. After retrograde cannulation of the abdominal aorta at its bifurcation with a 18-gauge intravenous catheter, the arterial tree was cleared of blood by perfusion with 100 ml of PBS (pH 7.2), followed by in vivo fixation with either 4% formaldehyde in phosphate-buffered saline (pH 7.2) or acetone/ethanol solution in 1:1 ratio. The entire left and right carotid arteries were harvested, including the aortic arch, innominate artery and left carotid bifurcation, and further immersed in the respective fixative. The injured left common carotid arteries were cut in three sections at least 4 mm long from the proximal, middle and distal part. From each study group, a part from the untreated contra-lateral right common carotid artery (control) was taken as well. The specimens were then dehydrated through a graded ethanol series, and embedded in paraffin for sectioning. Other arteries were not perfusion-fixed but were removed and immediately frozen. Three different segments of the left carotid artery were used for histological, morphometric, and immunohistochemical studies.
Morphometric analysis of the arterial segment was carried out in a blind manner on cross-sections stained with hematoxylin-eosin. For each animal at least 3 sections originating from the proximal, middle and distal segment of the injured vessel were quantitatively measured. Using a computerized digital microscopic planimetry algorithm (Optimas, Version 5.22), the areas within the external elastic lamina (EEL area), the internal elastic lamina (IEL area), and the luminal area were measured. Other areas were calculated as follows: medial area=EEL area−IEL area; neointimal area=IEL area−luminal area; neointima-to-media (I/M ratio=neointimal area/medial area.

[2] = test system: balloon-injured rat carotid artery; assay: S100A13, IL1, p40, PS expression in balloon-injured vessel wall (immunohistochemistry); type: in vivo, Sprague-Dawley rats
Protocol: In order to address the mechanisms underlying the effect of copper chelation on neointima formation, TTM was administered for 2 weeks before the balloon injury and daily after that until the animals were euthanized at the 4th and 7th day after the procedure. Accordingly, TTM-free animals euthanized 4 and 7 days after the injury were used as controls.
To evaluate S100A13, FGF1, p40 and IL-1α expression in balloon-injured arteries, paraffin-embedded specimens from the 4th, 7th and 14th day after the injury were cut into 5-μm cross sections, and mounted on glass slides. These sections were incubated in 10% hydrogen peroxide for 90 minutes to block endogenous peroxidase activity. Nonspecific binding was prevented by preincubating the sections with 5% bovine serum albumin (BSA; Sigma) in PBS. The sections were sequentially incubated with polyclonal rabbit anti-S100A13 antibody at a concentration of 1:200; polyclonal rabbit anti-FGF1 antibody at a concentration of 1:500; monoclonal mouse anti-p40 antibody at a concentration of 1:100; polyclonal rabbit anti-IL-1a antibody at a concentration of 1:50; phosphatidylserine (PS) antibody. After they were washed with PBS, the sections were incubated with anti-rabbit and anti-mouse IgG-conjugated horseradish peroxidase (Biorad) for an additional 30 minutes at room temperature. Each incubation was followed by a wash in PBS. Staining was visualized using the chromogen 0.06% 3,3′-diaminobenzidine/5% hydrogen peroxide in 0.05 mol/L Tris-HCl (pH 7.6). Control sections were incubated with nonimmune rabbit IgG at a concentration of 1:200.

ceruloplasmin = settings: cited from earlier work

For `[NH4+].[NH4+].[SH-].[SH-].[S]=[Mo]=[S]` [TTM, ammonium tetrathiomolybdate], the “neointima development, hematoxylin-eosin, vs controls” value ([1]; 4 days after the injury) was “no difference”, the intima/media ratio ([1]; 14 days after balloon injury, TTM 10 mg/kg daily started 1 week before injury, 2 weeks after, n=6, controls 1.76±0.105) was 0.96±0.121 and the intima/media ratio ([1]; 14 days after balloon injury, TTM 10 mg/kg daily started 2 weeks before injury, 2 weeks after, n=6, controls 1.76±0.105) was 0.83±0.006. The intima/media ratio ([1]; 14 days after balloon injury, TTM 10 mg/kg daily started on the day of injury, 2 weeks after, n=5, controls 1.76±0.105) was 1.27±0.04, the “reduction in the neointima formation in the rat carotid artery” value ([1]; TTM administration before and after injury, vs controls) was “up to 53%” and the intima/media ratio ([1]; TTM started 2 weeks before injury, continued 6 days after) was 0.76±0.06. The intima/media ratio ([1]; TTM started 2 weeks before injury, continued 8 days after) was 0.83±0.1, the intima/media ratio ([1]; TTM started 2 weeks before injury, continued 10 days after) was 0.79±0.013 and the intima/media ratio ([1]; TTM started 2 weeks before injury, stopped at the day of the injury) was 1.29±0.19. The “neointima development, hematoxylin-eosin, vs controls” value ([1]; day 7 after the injury) was “more pronounced in the controls”, the “I/M ratio compared to the controls” value ([1]; each TTM regimen, 14 days after balloon injury (FIG. 6E)) was “significant decrease” and the “S100A13, IL1 and PS staining in the neointima” value ([2]; 4 and 7 days after injury) was “no positive staining was detected”. For the same compound, the IL1 positive staining ([2]; 7 and 14 days after the balloon injury) was “almost complete inhibition”, the “presence of S100A13 compared to the controls” value ([2]; 7 and 14 days after the injury) was “significantly decreased” and the “S100A13, IL1 and PS staining in the neointima” value ([2]; 14 days after the injury) was “only a few cells were positively stained”. The phosphatidylserine flipping ([2]; balloon-injured arteries, controls did show it) was “did not show phosphatidylserine flipping”, the “time to induce copper deficiency” value (ceruloplasmin; humans, safely) was 2-4 weeks and the “ceruloplasmin reduction to” value (ceruloplasmin; patients with cancer, withstood for months and years (Brewer et al., 2000)) was 20 % of baseline.
